Data taken from US11905268B2, “Anthranilic acid derivatives and their use in the treatment of human cancers” (UNIVERSITY OF CENTRAL FLORIDA RESEARCH FOUNDATION, INC., priority 2018, dated 2024).
pEC50, pIC50: −log10 of the molar value. Where two headings read alike, the source gives them in different places.

Legend:
[1] = tested on: DFMO treated Chinese hamster ovary (CHO) cells; test: DFMO/spermidine rescue assay in CHO cells (Assay 2); assay type: cell-based
Description: In the reconfirmation assay compounds were run in quadruplicate. […] A PTI compound is expected to block the entry or disrupt the intracellular trafficking of spermidine and inhibit the ability of spermidine to rescue the growth or viability of DFMO treated cells.
DFMO/Spermidine assay Here cells were treated with an inhibitor of polyamine biosynthesis (DFMO) and rescued back to high viability by the presence of exogenous polyamine (spermidine). Putative PTI compounds were screened for their ability to block the entry or intracellular trafficking of exogenous spermidine (or otherwise disrupt the intracellular trafficking of spermidine) by measuring cell viability in the presence of DFMO+spermidine+PTI compound. […] This was followed by adding 10 μL of […] and 5 μM spermidine (FAC 5 mM DFMO and 1 μM spermidine) in assay medium with a Beckman BioRAPTR FRD dispenser or 10 μL of 5 mM DFMO added in assay medium (positive control). […] A PTI compound is expected to block the entry or disrupt the intracellular trafficking of spermidine and inhibit the ability of spermidine to rescue the growth or viability of DFMO treated cells Cytotoxicity

CHO cells [2] = test: Ant44 rescue assay in CHO cells (Assay 1); assay type: cell-based, Chinese hamster; details: for pIC50 / pEC50: Cricetulus griseus; for Ant44 EC40: Table 1
Description: CHO K1 cells were grown in growth medium (RPMI+10% FBS+1×P/S+1% l-glutamine) to 70% confluency, washed in PBS and trypsinized. Cells were plated in assay medium (serum free RPMI+2% FBS+1×l-glutamine+1×P/S+[…] aminoguanidine) at 50000 cells/mL for 200 cells per well in 4 ul using a Thermo Multidrop Combi into a 1536-well white Aurora plate.
Ant44 is a cytotoxic polyamine, i.e., N^1-(9-anthracenyl)-homospermidine. A non-toxic PTI compound would block entry or intracellular trafficking of the Ant44 toxin and rescue the cells back to high viability. Therefore, this screen tested for compounds which rescued cells from Ant44 toxicity. […] This was followed by adding 10 uL of 10 uM Ant44 (FAC 2 uM) in assay medium with a Beckman BioRAPTR FRD dispenser or 10 uL of cells added in assay medium (positive control).

CHO cells [3] = test: Cytotoxicity screen in CHO cells; details: for IC50 at 48 h: Chinese hamster, CHO K1 cells; for Tox (Ant44) / tox (DFMO Assay): toxic above the stated concentration; for Tox (Ant44): listed with Ant44 assay; for tox (DFMO Assay): listed with DFMO assay
Description: CHO K1 cells were grown in growth medium to 70% confluency and washed in PBS and trypsinized. […] Cells were spun at 100×g for 1 minute and incubated at 37° C. in a humidified CO2 incubator for 24 hours. […] Cellular ATP content was then assayed by adding 3 uL of ATPLite with a Beckman BioRAPTR FRD dispenser and incubated for 10 minutes at room temperature. Plates were spun at 200×g for 1 minute and read on a Perkin Elmer Viewlux multimode plate reader using luminescence mode. This assay was used for testing dose-response of dry powders.
CHO K1 cells were grown in growth medium to 70% confluency and washed in PBS and trypsinized. Cells were plated in assay medium at 10000 cells/mL for 200 cells per well using a Thermo Multidrop Combi in 20 uL into a white Greiner plate. Cells were spun at 100×g for 1 minute and incubated at 37° C. in a humidified CO2 incubator for 24 hours. […] This was followed by adding by 10 μL of assay medium to all wells with a Beckman BioRAPTR FRD dispenser. The plates were spun at 200×g for 1 minute and incubated at 37° C. in a humidified 5% CO2 incubator for 48 hours. Cellular ATP content was then assayed by adding 20 μL of ATPLite with a Beckman BioRAPTR FRD dispenser and incubated for 10 min at room temperature. Plates were spun at 200×g for 1 minute and read on a Perkin Elmer Envision for multimode plate reader using luminescence mode. Duplicates were run for each compound concentration, and the curves represent the average of the duplicates as percent viability.
The final compound concentration was either 20 μM or 10 μg/mL (depending upon the compound source). A successful PTI in Assay 1 would block the uptake of the toxic Ant44 probe and rescue the cells back to >90% relative growth vs an untreated control. It was critical to also evaluate the toxicity of the PTI by itself as a toxic PTI would give a false negative in Assay1 (and a false positive in Assay 2). […] Assay 2 then evaluated the ability of the compound to inhibit the uptake of a rescuing dose of Spermidine (Spd, 1 μM) into DFMO-treated CHO cells.

[4] = Cricetulus griseus, CHO, Table 7, read-out: SAR IC50 DFMO assay
[5] = CHO, Table 7, read-out: SAR IC50 Ant44 assay
[6] = Cricetulus griseus, Table 1 HTS top hits, CHO cells, read-out: DFMO Assay IC50
[7] = Table 1 HTS top hits, CHO cells, read-out: Ant44 EC50
[8] = Table 1 HTS top hits, CHO cells

SMILES	pIC50 [1, 4]	pIC50 (CHO cells [2]; [5])	IC50 at 48 h (CHO cells [3])	pIC50 [1, 6]	Tox (Ant44) (CHO cells [3]; CHO cells)	tox (DFMO Assay) (CHO cells [3]; CHO cells)	also measured
COc1ccccc1C(=O)Nc1ccc(N2CCN(Cc3ccccc3)CC2)cc1C(=O)O [SBI-0814414, 5-(4-benzylpiperazin-1-yl)-2-(2-methoxybenzamido)benzoic acid]	< 4.40	< 4.40	> 40 µM	–	–	–	–
COc1ccccc1C(=O)Nc1ccc(N2CCN(c3ccccn3)CC2)cc1C(=O)O [SBI-0801308, 2-(2-methoxybenzamido)-5-(4-(pyridin-2-yl)piperazin-1-yl)benzoic acid]	< 4.40	5.40	21 µM	4.70 to 5.00	> 31 µM	> 20 µM	Active in DFMO assay? ([1]; Table 3, in CHO): No in CHO; DFMO/CHO IC50 ([1]; Table 5B): trace; pEC50 (CHO cells [2]; CHO, Table 3, read-out: Ant44 rescue EC50 CHO): 5.00; pEC50 (CHO cells [2]; [7]): 5.00 to 5.30; pIC50 (CHO cells [2]; Table 5B, CHO cells, read-out: Ant44 IC50): 5.44; CHO MTD EC50 (CHO cells [3]; hamster): (22) uM; MTD CHO (CHO cells [3]; hamster): ~10 µM
COc1ccccc1C(=O)Nc1ccc(N2CCN(c3cc(Cl)ccc3C)CC2)cc1C(=O)O [SBI-0351221, 5-(4-(5-chloro-2-methylphenyl)piperazin-1-yl)-2-(2-methoxybenzamido)benzoic acid]	4.68	5.70	19 µM	~5.00	SBI- 0351221.0002 (10 EC50) Tox >10 μM	SBI- 0351221.0002 (IC50 ~10), toxic >10 μM	pEC50 (CHO cells [2]; [7]): 5.00
COc1ccc(C(=O)Nc2ccc(N3CCN(c4ccc(C(C)=O)cc4)CC3)cc2C(=O)O)cc1 [SBI-0800674]	4.68	< 4.40	20 µM	~5.30	> 5 µM	> 10 µM	Ant44 EC50 (CHO cells [2]; [8]): no effect
Cc1cccc(N2CCN(c3ccc(NC(=O)c4ccccc4F)cc3C(=O)O)CC2C)c1 (stereo not shown) [SBI-0800663]	< 4.40	–	> 40 µM	–	–	–	–
COc1ccccc1N1CCN(c2ccc(N3C(=O)CCC3=O)cc2[N+](=O)[O-])CC1 [SBI-0800661]	4.52	< 4.40	27 µM	< 4.70	–	–	Ant44 EC50 (CHO cells [2]; [8]): SBI- 0800661.0001 No effect
COc1ccc(C(=O)Nc2ccc(N3CCN(c4ccccc4Cl)CC3)cc2C(=O)O)cc1 [SBI-0800682]	4.57	< 4.40	28 µM	4.82 to 5.00	> 20 µM	> 10 µM	Ant44 EC40 (CHO cells [2]; CHO cells): ~15 µM
COc1ccccc1C(=O)Nc1ccc(N2CCN(CCCc3ccccc3)CC2)cc1C(=O)O [SBI-0814416, 2-(2-methoxybenzamido)-5-(4-(3-phenylpropyl)piperazin-1-yl)benzoic acid]	< 4.40	< 4.40	> 40 µM	–	–	–	–
Cc1ccc(C)c(N2CCN(c3ccc(N4C(=O)CC(c5ccccc5)C4=O)cc3[N+](=O)[O-])CC2)c1 (stereo not shown) [SBI-0372958]	4.57	–	32 µM	–	–	–	–
COc1ccc(C(=O)Nc2ccc(N3CCN(c4cc(Cl)ccc4C)CC3)cc2C(=O)O)c(OC)c1 [SBI-0801324, 5-(4-(5-chloro-2-methylphenyl)piperazin-1-yl)-2-(2,4-dimethoxybenzamido)benzoic acid]	< 4.40	< 4.40	> 40 µM	–	–	Non tox	DFMO Assay IC40 ([1]; Table 1, CHO cells): 31 µM; pEC50 (CHO cells [2]; [7]): 4.51
COc1ccccc1N1CCN(c2ccc(NC(=O)c3ccccc3Cl)c(C(=O)O)c2)CC1 [SBI-0800670]	–	4.80	36 µM	4.82 to 5.00	SBI- 0800670.0001 (20 EC50) Tox >20 μM	> 15 µM	pEC50 (CHO cells [2]; [7]): 4.70
COc1ccc(S(=O)(=O)Nc2ccc(N3CCN(c4cc(Cl)ccc4C)CC3)cc2C(=O)O)cc1 [SBI-0801326, 5-(4-(5-chloro-2-methylphenyl)piperazin-1-yl)-2-(4-methoxyphenylsulfonamido)benzoic acid]	< 4.40	< 4.40	> 40 µM	–	–	–	–
COc1ccc(C(=O)Nc2ccc(N3CCN(c4ccc(OC)cc4)CC3)cc2C(=O)O)cc1 [SBI-0800680]	< 4.40	< 4.40	> 40 µM	< 4.51	~5 µM	no tox	pEC50 (CHO cells [2]; [7]): 4.51
COc1ccc(C(=O)Nc2ccc(N3CCC(C(N)=O)CC3)cc2C(=O)O)cc1 [SBI-0800693]	< 4.40	< 4.40	–	~5.00	–	SBI- 0800693.0001 (Ic50 ~10 μM, tox >10 μM)	Ant44 EC50 (CHO cells [2]; [8]): SBI- 0800693.0001 (NO EFFECT)
COc1ccc(C(=O)Nc2ccc(N3CCC(N4CCCCC4)CC3)cc2C(=O)O)cc1 [SBI-0800694]	< 4.40	–	> 40 µM	–	–	–	–
COc1ccc(C(=O)Nc2ccc(N3CCN(c4cc(Cl)ccc4C)CC3)c(C(=O)O)c2)cc1 [SBI-0800662]	5.30	< 4.40	14 µM	~5.30	–	–	Ant44 EC50 (CHO cells [2]; [8]): SBI- 0800662.0001 No effect
COc1ccc(C(=O)Nc2ccc(N3CCN(c4cccc(C)c4C)CC3)cc2C(=O)O)cc1 [SBI-0800686]	–	–	–	~5.30	SBI- 0800686.0001 Tox >10, EC50 near 10 μM	SBI- 0800686.0001 (IC50 ~5, tox >5) μM	pEC50 (CHO cells [2]; [7]): ~5.00
COC(=O)c1cc(N2CCN(c3cc(Cl)ccc3C)CC2)ccc1NC(=O)c1ccc(OC)cc1 [SBI-0801722, methyl 5-(4-(5-chloro-2-methylphenyl)piperazin-1-yl)-2-(4-methoxybenzamido)benzoate]	< 4.40	< 4.40	> 40 µM	–	–	–	–
COc1ccc(C(=O)Nc2ccc(N3CCN(c4ccccc4)CC3)cc2C(=O)O)cc1 [SBI-0800679]	4.82	< 4.40	–	4.82 to 5.00	SBI- 0800679.0001 EC40 near 20 μM, Tox >20 μM)	> 15 µM	activity in DFMO assay ([1]; CHO cells): active; pEC50 ([1]; Cricetulus griseus, CHO, Table 2): 5.00; pIC50 ([1]; Cricetulus griseus, CHO, Table 4B, read-out: DFMO/CHO IC50): 4.82; pEC50 (CHO cells [2]; CHO, Table 2, Active in Ant44 assay?, read-out: Ant44 assay EC50 in CHO): < 5.00; Ant44 EC40 (CHO cells [2]; CHO cells): SBI- 0800679.0001 EC40 near 20 μM, Tox >20 μM); Active in Ant44 assay? (CHO cells [2]; Table 2, in CHO): Yes; Ant44 IC50 (CHO cells [2]; Table 4B, CHO cells): trace; general toxicity (CHO cells [3]; CHO cells): modest level of toxicity; CHO MTD (CHO cells [3]; hamster): 10 µM; CHO MTD EC50 (CHO cells [3]; hamster): (17) μM
Cc1ccc(C(=O)Nc2ccc(N3CCN(c4cc(Cl)ccc4C)CC3)c(C(=O)O)c2)cc1 [SBI-0800669]	5.30	< 4.40	12 µM	5.30 to 5.70	–	> 10 µM	Ant44 EC50 (CHO cells [2]; [8]): SBI- 0800669.0001 No effect
NCCC[C@](N)(C(=O)O)C(F)F [DFMO, alpha-difluoromethylornithine, reference compound]	–	–	–	–	–	–	pIC50 (CHO cells [3]; Cricetulus griseus, CHO, 48 h, read-out: 48 h IC50): 2.38
